Experimental data published in patent US20230278972A1, “SUBSTITUTED HALOALKYL SULFONANILIDE HERBICIDES” (FMC Corporation, priority 2020, published 2023).

What was measured:
Format in all cases: in vivo
[1] = test system: barnyardgrass (Echinochloa crus-galli); test: Test A preemergence, barnyardgrass; settings: Preemergence; for Plant response rating, Barnyardgrass: 0 to 100 scale (0 no effect, 100 complete control); for Barnyardgrass plant response rating: visual injury on 0 to 100 scale (0 no effect, 100 complete control), approximately 10 days
Procedure, shortened: (§1)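 Formulated with a surfactant in a non-phytotoxic solvent, compounds are applied to loam–sand pots, either to bare soil immediately after seeding (preemergence) or to seedlings of 2 to 10 cm bearing one to two leaves (postemergence).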

kochia (Bassia scoparia) [2] = test: Test A preemergence, kochia; settings: Preemergence; for Plant response rating, Kochia: 0 to 100 scale (0 no effect, 100 complete control); for Kochia plant response rating: visual injury on 0 to 100 scale (0 no effect, 100 complete control), approximately 10 days
Procedure, shortened: as §1

[3] = test system: ragweed (common ragweed, Ambrosia artemisiifolia); test: Test A preemergence, ragweed; settings: Preemergence; for Plant response rating, Ragweed: 0 to 100 scale (0 no effect, 100 complete control); for Ragweed plant response rating: visual injury on 0 to 100 scale (0 no effect, 100 complete control), approximately 10 days
Procedure, shortened: as §1

[4] = test system: Ryegrass, Italian (Italian ryegrass, Lolium multiflorum); test: Test A preemergence, Ryegrass, Italian; settings: Preemergence; for Plant response rating, Ryegrass, Italian: 0 to 100 scale (0 no effect, 100 complete control); for Ryegrass, Italian plant response rating: visual injury on 0 to 100 scale (0 no effect, 100 complete control), approximately 10 days
Procedure, shortened: as §1

[5] = test system: Foxtail, Giant (giant foxtail, Setaria faberi); test: Test A preemergence, Foxtail, Giant; settings: Preemergence; for Plant response rating, Foxtail, Giant: 0 to 100 scale (0 no effect, 100 complete control); for Foxtail, Giant plant response rating: visual injury on 0 to 100 scale (0 no effect, 100 complete control), approximately 10 days
Procedure, shortened: as §1

[6] = test system: pigweed (Amaranthus retroflexus); test: Test A preemergence, pigweed; settings: for Plant response rating, Pigweed: 0 to 100 scale (0 no effect, 100 complete control); for Pigweed plant response rating: visual injury on 0 to 100 scale (0 no effect, 100 complete control), approximately 10 days
From the text: Seeds of plant species selected from barnyardgrass (Echinochloa crus-galli), kochia (Bassia scoparia), ragweed (common ragweed, Ambrosia artemisiifolia), Ryegrass, Italian (Italian ryegrass, Lolium multiflorum), Foxtail, Giant (giant foxtail, Setaria faberi), and pigweed (Amaranthus retroflexus) were planted into a blend of loam soil and sand and treated preemergence with a directed soil spray using test chemicals formulated in a non-phytotoxic solvent mixture which included a surfactant. At the same time, plants selected from these weed species and also wheat (Triticum aestivum), corn (Zea mays), blackgrass (Alopecurus myosuroides), and galium (catchweed bedstraw, Galium aparine) were planted in pots containing the same blend of loam soil and sand and treated with postemergence applications of test chemicals formulated in the same manner. Plants ranged in height from 2 to 10 cm and were in the one- to two-leaf stage for the postemergence treatment. […] A dash (-) response means no test result.

kochia (Bassia scoparia) [7] = test: Test A postemergence, kochia; settings: Postemergence, 0 to 100 scale (0 no effect, 100 complete control); for Plant response rating, Kochia: 125 g ai/ha; for Kochia plant response rating: 500 g ai/ha, visual injury vs untreated controls after approx. 10 days
Procedure, shortened: as §1

[8] = test system: ragweed (common ragweed, Ambrosia artemisiifolia); test: Test A postemergence, ragweed; settings: Postemergence, 0 to 100 scale (0 no effect, 100 complete control); for Plant response rating, Ragweed: 125 g ai/ha; for Ragweed plant response rating: 500 g ai/ha, visual injury vs untreated controls after approx. 10 days
Procedure, shortened: as §1

[9] = test system: Ryegrass, Italian (Italian ryegrass, Lolium multiflorum); test: Test A postemergence, Ryegrass, Italian; settings: Postemergence, 0 to 100 scale (0 no effect, 100 complete control); for Plant response rating, Ryegrass, Italian: 125 g ai/ha; for Ryegrass, Italian plant response rating: 500 g ai/ha, visual injury vs untreated controls after approx. 10 days
Procedure, shortened: as §1

[10] = test system: Foxtail, Giant (giant foxtail, Setaria faberi); test: Test A postemergence, Foxtail, Giant; settings: Postemergence, 0 to 100 scale (0 no effect, 100 complete control); for Plant response rating, Foxtail, Giant: 125 g ai/ha; for Foxtail, Giant plant response rating: 500 g ai/ha, visual injury vs untreated controls after approx. 10 days
Procedure, shortened: as §1

[11] = test system: pigweed (Amaranthus retroflexus); test: Test A postemergence, pigweed; settings: Postemergence, 0 to 100 scale (0 no effect, 100 complete control); for Plant response rating, Pigweed: 125 g ai/ha; for Pigweed plant response rating: 500 g ai/ha, visual injury vs untreated controls after approx. 10 days
Procedure, shortened: as §1

[12] = test system: wheat (Triticum aestivum); test: Test A postemergence, wheat; settings: Postemergence, 0 to 100 scale (0 no effect, 100 complete control); for Plant response rating, Wheat: 125 g ai/ha; for Wheat plant response rating: 500 g ai/ha, visual injury vs untreated controls after approx. 10 days
Procedure, shortened: (§2)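 Greenhouse pot test in a loam–sand blend; compounds delivered in a non-phytotoxic solvent carrying a surfactant, applied either as a directed spray to soil at seeding or over seedlings 2 to 10 cm high with one to two leaves.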

corn (Zea mays) = test: Test A postemergence, corn; settings: Postemergence, 0 to 100 scale (0 no effect, 100 complete control); for Plant response rating, Corn: 125 g ai/ha; for Corn plant response rating: 500 g ai/ha, visual injury vs untreated controls after approx. 10 days
Procedure, shortened: as §1

[13] = test system: blackgrass (Alopecurus myosuroides); test: Test A postemergence, blackgrass; settings: Postemergence, 0 to 100 scale (0 no effect, 100 complete control); for Plant response rating, Blackgrass: 125 g ai/ha; for Blackgrass plant response rating: 500 g ai/ha, visual injury vs untreated controls after approx. 10 days
Procedure, shortened: as §1

[14] = test system: galium (catchweed bedstraw, Galium aparine); test: Test A postemergence, galium; settings: Postemergence, 0 to 100 scale (0 no effect, 100 complete control); for Plant response rating, Galium: 125 g ai/ha; for Galium plant response rating: 500 g ai/ha, visual injury vs untreated controls after approx. 10 days
Procedure, shortened: as §2

[15] = 125 g ai/ha, visual injury, approx. 10 days

Compound: Cc1cc(Cl)c(NS(=O)(=O)C(F)(F)F)cc1C(=O)N1CCC(F)CC1 [Compound 201]
- Plant response rating, Barnyardgrass [1, 15]: 50
- Plant response rating, Barnyardgrass ([1]; 500 g ai/ha): 100
- Plant response rating, Kochia (kochia (Bassia scoparia) [2]; [15]): 90
- Plant response rating, Kochia (kochia (Bassia scoparia) [2]; 500 g ai/ha): 100
- Plant response rating, Ragweed [3, 15]: 70
- Plant response rating, Ragweed ([3]; 500 g ai/ha): 100
- Plant response rating, Ryegrass, Italian [4, 15]: 60
- Plant response rating, Ryegrass, Italian ([4]; 500 g ai/ha): 90
- Plant response rating, Foxtail, Giant [5, 15]: 50
- Plant response rating, Foxtail, Giant ([5]; 500 g ai/ha): 100
- Plant response rating, Pigweed [6, 15]: 100
- Plant response rating, Pigweed ([6]; 500 g ai/ha): 100
- Plant response rating, Kochia (kochia (Bassia scoparia) [7]): 60
- Kochia plant response rating (kochia (Bassia scoparia) [7]): 90
- Plant response rating, Ragweed [8]: 80
- Ragweed plant response rating [8]: 90
- Plant response rating, Ryegrass, Italian [9]: 30
- Ryegrass, Italian plant response rating [9]: 70
- Plant response rating, Foxtail, Giant [10]: 50
- Foxtail, Giant plant response rating [10]: 90
- Plant response rating, Pigweed [11]: 60
- Pigweed plant response rating [11]: 100
- Plant response rating, Wheat [12]: 60
- Wheat plant response rating [12]: 70
- Plant response rating, Corn (corn (Zea mays)): 20
- Corn plant response rating (corn (Zea mays)): 50
- Plant response rating, Blackgrass [13]: 20
- Blackgrass plant response rating [13]: 30
- Plant response rating, Galium [14]: 90
- Galium plant response rating [14]: 90

Compound: Cc1cc(C)c(N(S(C)(=O)=O)S(=O)(=O)C(F)(F)F)cc1-c1ccnn(C)c1=O [Compound 73]
- Barnyardgrass plant response rating ([1]; 125 g ai/ha): 90
- Plant response rating, Barnyardgrass ([1]; 500 g ai/ha): 90
- Kochia plant response rating (kochia (Bassia scoparia) [2]; 125 g ai/ha): 80
- Plant response rating, Kochia (kochia (Bassia scoparia) [2]; 500 g ai/ha): 90
- Ragweed plant response rating ([3]; 125 g ai/ha): 80
- Plant response rating, Ragweed ([3]; 500 g ai/ha): 80
- Ryegrass, Italian plant response rating ([4]; 125 g ai/ha): 90
- Plant response rating, Ryegrass, Italian ([4]; 500 g ai/ha): 100
- Foxtail, Giant plant response rating ([5]; 125 g ai/ha): 100
- Plant response rating, Foxtail, Giant ([5]; 500 g ai/ha): 100
- Pigweed plant response rating ([6]; 125 g ai/ha): 90
- Plant response rating, Pigweed ([6]; 500 g ai/ha): 100
- Plant response rating, Kochia (kochia (Bassia scoparia) [7]; visual injury approx. 10 days): 10
- Kochia plant response rating (kochia (Bassia scoparia) [7]): 70
- Plant response rating, Ragweed ([8]; visual injury approx. 10 days): 20
- Ragweed plant response rating [8]: 80
- Plant response rating, Ryegrass, Italian ([9]; visual injury approx. 10 days): 60
- Ryegrass, Italian plant response rating [9]: 90
- Plant response rating, Foxtail, Giant ([10]; visual injury approx. 10 days): 80
- Foxtail, Giant plant response rating [10]: 90
- Plant response rating, Pigweed ([11]; visual injury approx. 10 days): 60
- Pigweed plant response rating [11]: 80
- Plant response rating, Wheat ([12]; visual injury approx. 10 days): 60
- Wheat plant response rating [12]: 70
- Plant response rating, Corn (corn (Zea mays); visual injury approx. 10 days): 10
- Corn plant response rating (corn (Zea mays)): 70
- Plant response rating, Blackgrass ([13]; visual injury approx. 10 days): 40
- Blackgrass plant response rating [13]: 80
- Plant response rating, Galium ([14]; visual injury approx. 10 days): 90
- Galium plant response rating [14]: 90

Compound: Cc1cc(C)c(C2=NOC3(CCC3)C2)cc1NS(=O)(=O)C(F)(F)F [Compound 228]
- Plant response rating, Barnyardgrass [1, 15]: 100
- Plant response rating, Barnyardgrass ([1]; 500 g ai/ha): 100
- Plant response rating, Kochia (kochia (Bassia scoparia) [2]; [15]): 60
- Kochia plant response rating (kochia (Bassia scoparia) [2]; 500 g ai/ha): 90
- Plant response rating, Ragweed [3, 15]: 10
- Ragweed plant response rating ([3]; 500 g ai/ha): 70
- Plant response rating, Ryegrass, Italian [4, 15]: 100
- Ryegrass, Italian plant response rating ([4]; 500 g ai/ha): 100
- Plant response rating, Foxtail, Giant [5, 15]: 90
- Foxtail, Giant plant response rating ([5]; 500 g ai/ha): 100
- Plant response rating, Pigweed [6, 15]: 100
- Pigweed plant response rating ([6]; 500 g ai/ha): 100
- Plant response rating, Kochia (kochia (Bassia scoparia) [7]): 20
- Kochia plant response rating (kochia (Bassia scoparia) [7]): 80
- Plant response rating, Ragweed [8]: 20
- Ragweed plant response rating [8]: 30
- Plant response rating, Ryegrass, Italian [9]: 0
- Ryegrass, Italian plant response rating [9]: 60
- Plant response rating, Foxtail, Giant [10]: 0
- Foxtail, Giant plant response rating [10]: 40
- Plant response rating, Pigweed [11]: 30
- Pigweed plant response rating [11]: 70
- Plant response rating, Wheat [12]: 0
- Wheat plant response rating [12]: 70
- Plant response rating, Corn (corn (Zea mays)): 10
- Corn plant response rating (corn (Zea mays)): 70
- Plant response rating, Blackgrass [13]: 0
- Blackgrass plant response rating [13]: 0
- Plant response rating, Galium [14]: 80
- Galium plant response rating [14]: 90

Compound: Cc1cc(C)c(N(S(=O)(=O)C(F)(F)F)S(=O)(=O)C(F)(F)F)cc1-c1cc(Cl)nn(C)c1=O [Compound 74]
- Barnyardgrass plant response rating ([1]; 125 g ai/ha): 90
- Plant response rating, Barnyardgrass ([1]; 500 g ai/ha): 100
- Kochia plant response rating (kochia (Bassia scoparia) [2]; 125 g ai/ha): 70
- Plant response rating, Kochia (kochia (Bassia scoparia) [2]; 500 g ai/ha): 100
- Ragweed plant response rating ([3]; 125 g ai/ha): 70
- Plant response rating, Ragweed ([3]; 500 g ai/ha): 90
- Ryegrass, Italian plant response rating ([4]; 125 g ai/ha): 80
- Plant response rating, Ryegrass, Italian ([4]; 500 g ai/ha): 100
- Foxtail, Giant plant response rating ([5]; 125 g ai/ha): 100
- Plant response rating, Foxtail, Giant ([5]; 500 g ai/ha): 100
- Pigweed plant response rating ([6]; 125 g ai/ha): 60
- Plant response rating, Pigweed ([6]; 500 g ai/ha): 100
- Plant response rating, Kochia (kochia (Bassia scoparia) [7]; visual injury approx. 10 days): 30
- Kochia plant response rating (kochia (Bassia scoparia) [7]): 90
- Plant response rating, Ragweed ([8]; visual injury approx. 10 days): 0
- Ragweed plant response rating [8]: 30
- Plant response rating, Ryegrass, Italian ([9]; visual injury approx. 10 days): 20
- Ryegrass, Italian plant response rating [9]: 70
- Plant response rating, Foxtail, Giant ([10]; visual injury approx. 10 days): 40
- Foxtail, Giant plant response rating [10]: 80
- Plant response rating, Pigweed ([11]; visual injury approx. 10 days): 80
- Pigweed plant response rating [11]: 90
- Plant response rating, Wheat ([12]; visual injury approx. 10 days): 60
- Wheat plant response rating [12]: 70
- Plant response rating, Corn (corn (Zea mays); visual injury approx. 10 days): 0
- Corn plant response rating (corn (Zea mays)): 10
- Plant response rating, Blackgrass ([13]; visual injury approx. 10 days): 40
- Blackgrass plant response rating [13]: 50
- Plant response rating, Galium ([14]; visual injury approx. 10 days): 50
- Galium plant response rating [14]: 90
